Among the data in EP0543245A1, “Renin inhibiting amino acid derivatives” (F. HOFFMANN-LA ROCHE AG, priority 1991, dated 1993) are IC50 values, retold here.

This test addresses T1, Human-Renin (Homo sapiens, UniProt P00797).
T1 sequence (P00797 67-406): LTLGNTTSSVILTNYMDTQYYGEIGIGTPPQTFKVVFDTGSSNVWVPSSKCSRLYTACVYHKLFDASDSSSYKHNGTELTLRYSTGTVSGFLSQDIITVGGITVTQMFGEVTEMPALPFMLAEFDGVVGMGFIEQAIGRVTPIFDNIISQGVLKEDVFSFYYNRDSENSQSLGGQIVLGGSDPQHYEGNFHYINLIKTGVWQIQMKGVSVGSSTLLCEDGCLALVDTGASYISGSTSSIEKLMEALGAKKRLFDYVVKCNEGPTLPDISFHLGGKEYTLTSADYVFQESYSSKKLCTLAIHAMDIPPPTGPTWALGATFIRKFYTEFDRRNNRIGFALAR
Description: In vitro test with pure human renin. The class given is biochemical. The following applies: human tetradecapeptide renin substrate (hTD), pH 7.4, 3 h at 37°C vs 4°C, angiotensin I measured by RIA, read-out: IC₅₀-Werte. The protocol:
In vitro-Test mit reinem Human-Renin
Der Test wird in Eppendorf Röhrchen durchgeführt. Die Inkubationsmischung besteht aus (1) 100 µl Human-Renin in Puffer A (0,1M Natriumphosphatlösung, pH 7.4, enthaltend 0,1% Rinderserumalbumin, 0,1% Natriumazid und 1 mM Aethylendiamintetraessigsäure), genügend für eine Renin-Aktivität von 2-3 ng Angiotensin I/ ml/Std.; (2) 145 µl Puffer A; (3) 30 µl von 10 µM humanem Tetradekapeptid-Reninsubstrat (hTD) in 10 mM Salzsäure; (4) 15 µl Dimethylsulfoxid mit bzw. ohne Hemmer und (5) 10 µl einer 0,03 molaren Lösung von Hydroxychinolinsulfat in Wasser.
Die Proben werden drei Stunden bei 37°C bzw. 4°C in Triplikaten inkubiert. 2 x 100 µl Proben pro Versuchsröhrchen werden dann verwendet, um die Produktion von Angiotensin I via RIA (standard radioimmunoassay; Clinical Assay solid phase kit) zu messen. Kreuzreaktivitäten der verwendeten Antikörper im RIA sind: Angiotensin I 100%; Angiotensin II 0,0013%; hTD (Angiotensin I-Val-Ile-His-Ser-OH) 0,09%. Die Produktion von Angiotensin I wird durch die Differenz zwischen dem Versuch bei 37°C und demjenigen bei 4°C bestimmt.
Folgende Kontrollen werden mitgeführt: • (a) Inkubation von hTD-Proben ohne Renin und ohne Hemmer bei 37°C und 4°C. Die Differenz zwischen diesen beiden Werten ergibt den Grundwert der Angiotensin I-Produktion. • (b) Inkubation von hTD-Proben mit Renin, jedoch ohne Hemmer bei 37°C und 4°C. Die Differenz zwischen diesen Werten ergibt den Maximalwert der Angiotensin I-Produktion.
In jeder Probe wird von der ermittelten Angiotenin I-Produktion der Grundwert der Angiotensin I-Produktion abgezogen. Die Differenz zwischen dem Maximalwert und dem Grundwert ergibt den Wert der maximalen Substrathydrolyse (=100%) durch Renin.
Die Resultate werden als IC₅₀-Werte angegeben, welche diejenige Konzentration des Hemmers bezeichnen, bei welcher die enzymatische Aktivität um 50% gehemmt wird. Die IC₅₀-Werte werden aus einer linearen Regressionskurve aus einem logit-log plot ermittelt.
Consider `O=C(N[C@@H](CC1CCCCC1)[C@@H](O)[C@@H](O)C1CC1)C(Cc1cccnc1)c1nnc2c(C3CC3)nc(-c3cccnc3)cn12` (single isomer, unassigned) [A], for which the IC50 stood at 51 nM.

As for `O=C(N[C@@H](CC1CCCCC1)[C@@H](O)[C@@H](O)C1CC1)C(Cc1cscn1)c1nnc2c(C3CC3)nc(-c3cccnc3)cn12` (single isomer, unassigned) [B], the IC50 was 2 nM.

For the compound `O=C(N[C@@H](CC1CCCCC1)[C@@H](O)[C@@H](O)C1CC1)C(Cc1cccnc1)c1nnc2c(CC3CC3)nc(-c3cccnc3)cn12` (single isomer, unassigned) [C], the IC50 is 17 nM.

Turning to `O=C(N[C@@H](CC1CCCCC1)[C@@H](O)[C@@H](O)C1CC1)C(Cc1cscn1)c1nnc2c(CC3CC3)nc(-c3cccnc3)cn12` (single isomer, unassigned) [D], the IC50 came to 2.3 nM.

With `CC(C)Cc1nc(-c2cccnc2)nn2c(C(Cc3cccnc3)C(=O)N[C@@H](CC3CCCCC3)[C@@H](O)[C@@H](O)C3CC3)nnc12` (single isomer, unassigned) [F], the IC50 is 150 nM.

In the case of `O=C(N[C@@H](Cc1ccccc1)[C@@H](O)[C@@H](O)C1CC1)C(Cc1cccnc1)c1nnc2c(C3CC3)nc(-c3cccnc3)cn12` (stereo partly drawn) [E, (R,S)-N-[(1S,2R,3S)-1-Benzyl-3-cyclopropyl-2,3-dihydroxypropyl]-8-cyclopropyl-6-(3-pyridyl)-α-(3-pyridylmethyl)-s-triazolo[4,3-a]pyrazin-3-acetamid], the IC50 worked out at 100 nM.

For `C=CCC(C(=O)N[C@@H](CC1CCCCC1)[C@@H](O)[C@@H](O)C1CC1)c1nnc2c(CCC)nc(-c3cccnc3)cn12` (stereo partly drawn) [G, (R,S)-α-Allyl-N-[(1S,2R,3S)-1-(cyclohexylmethyl)3-cyclopropyl-2,3-dihydroxypropyl]-8-propyl-6-(3-pyridyl)-s-triazolo[4,3-a]pyrazin-3-acetamid], the IC50 is 16 nM.
